The values that follow come from US20080255168A1, “METHODS FOR ADMINISTERING DPD INHIBITORS IN COMBINATION WITH 5-FU AND 5-FU PRODRUGS” (ADHEREX TECHNOLOGIES, INC., priority 2004, published 2008).

The structures appear in SMILES notation. Where two headings read alike, the source gives them in different places. Some results are limits rather than exact numbers.

Data set [1] relates to EpiDerm™ skin model (normal, human-derived epidermal keratinocytes). The experiment in a line: EpiDerm skin model dermal irritation, MTT conversion assay (ET50). Format: cell-based. The text has this: The EpiDerm™ skin model system (MatTek) was used to assess the potential dermal irritation of eniluracil alone or its formulation. This system consists of normal, human-derived epidermal keratinocytes (NHEK) which have been cultured to form a multilayered, highly differentiated model of the human epidermis. […] The EpiDerm™ system is mitotically and metabolically active. Markers of mature epidermis-specific differentiation such as pro-filaggrin, the K1/K10 cytokeratin pair, involucrin, and type I epidermal transglutaminase have been localized in the model. […] The duration of exposure resulting in a 50% decrease in MTT conversion in test article-treated EpiDerm™ cultures, relative to control cultures, was determined (ET50). Eniluracil was prepared and administered to the test system at the three final concentrations of 1000 μM, 500 μM, and 100 μM, and tested at three exposure times of 8, 20, and 24 hours. The DMSO solvent control was tested at exposure times of 8 and 24 hours. The negative control was tested at exposure times of 4 and 24 hours, and the positive control was tested at exposure times of 4 and 8 hours. The results of the trial, presented in Table 1, confirmed that the three doses of eniluracil were well-tolerated by the EpiDerm™ skin model at topical exposures of up to 24 hours. […] Hydrochloric acid in an amount equivalent to the sodium hydroxide was added to neutralize the ointment. The exposure time control was also exposed in duplicate for 4 and 24 hours. Table 2 below summarizes the ET50 results of the EpiDerm™ assay for the test articles and the positive control, using the negative control results to determine the relative viability.

The test system of data set [2] is HEK 293 cells. The data set can be described thus: [6-14C]-FUMP anabolite formation from [6-14C]-5-FU in HEK 293 cells, reverse phase HPLC. The conditions noted are these: eniluracil 10 μM 1 hour, 48 hour washout, then [6-14C]-5-FU 66 μM 2 hours. Format: cell-based. On the procedure: (§1) HEK 293 cells were initially treated with eniluracil (10 μM) for 1 hour. After a washout period ranging from 4-48 hours, cells were treated with [6-^14C]-5-FU (66 μM) for 2 hours at 37 degrees C. Controls were HEK 293 cells treated for 2 hours either with [6-^14C]-5-FU (66 μM) alone, or with eniluracil (10 μM) and [6-^14C]-5-FU (66 μM) co-administered together without preincubation. Reverse phase HPLC with radioactivity detection was utilized to quantify [6-^14C]-5-FU catabolites/anabolites present in cell lysates. In a separate set of experiments cytotoxicity of 5-FU at different eniluracil dose schedules was examined. HEK 293 cells were treated with a range of 5-FU concentrations for 72 hours at 37 degrees C. following 1 hour eniluracil (5 μM) preincubation, without eniluracil, or with eniluracil (5 μM) co-administered without preincubation. Cytotoxicity was assessed by the MTS proliferation assay and the EC50 values for 5-FU calculated.

The target of a further data set is T1, DPD (Homo sapiens, UniProt Q12882).
T1 construct: 24 hours after one dose of eniluracil, the level of DPD was only 3% of the predose level; host or cells: cancer patients
T1 sequence (Q12882 4-1025): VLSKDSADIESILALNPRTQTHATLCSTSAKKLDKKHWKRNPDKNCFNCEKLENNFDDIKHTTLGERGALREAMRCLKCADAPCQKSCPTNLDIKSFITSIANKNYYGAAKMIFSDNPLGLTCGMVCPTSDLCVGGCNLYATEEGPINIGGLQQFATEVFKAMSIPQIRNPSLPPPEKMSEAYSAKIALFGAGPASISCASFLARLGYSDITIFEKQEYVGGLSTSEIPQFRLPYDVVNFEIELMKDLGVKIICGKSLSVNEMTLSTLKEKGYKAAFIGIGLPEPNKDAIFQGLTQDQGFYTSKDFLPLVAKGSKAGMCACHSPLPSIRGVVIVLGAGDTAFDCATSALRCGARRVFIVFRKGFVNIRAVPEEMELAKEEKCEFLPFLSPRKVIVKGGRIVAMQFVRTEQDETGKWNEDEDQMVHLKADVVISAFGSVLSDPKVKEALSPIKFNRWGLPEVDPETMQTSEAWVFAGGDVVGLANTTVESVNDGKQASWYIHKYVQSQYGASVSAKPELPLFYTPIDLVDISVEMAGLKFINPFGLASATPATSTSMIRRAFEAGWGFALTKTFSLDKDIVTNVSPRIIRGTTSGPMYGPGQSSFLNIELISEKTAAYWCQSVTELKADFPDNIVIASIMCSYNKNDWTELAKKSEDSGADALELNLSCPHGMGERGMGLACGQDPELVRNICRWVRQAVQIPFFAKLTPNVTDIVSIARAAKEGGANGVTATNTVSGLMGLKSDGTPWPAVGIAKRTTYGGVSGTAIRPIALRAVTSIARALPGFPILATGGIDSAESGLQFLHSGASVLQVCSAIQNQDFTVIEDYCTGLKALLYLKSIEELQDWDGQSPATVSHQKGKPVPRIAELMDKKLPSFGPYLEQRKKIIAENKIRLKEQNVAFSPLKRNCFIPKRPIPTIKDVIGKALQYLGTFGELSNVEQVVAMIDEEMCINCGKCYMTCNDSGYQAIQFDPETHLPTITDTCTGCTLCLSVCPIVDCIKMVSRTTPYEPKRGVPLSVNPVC
The conditions noted are these: cancer patients, cited from earlier work.

For data set [3] the following is noted: cited from earlier work.
The test system of the next data set is Ward carcinoma tumors. The experiment in a line: Antitumor activity in rats bearing Ward carcinoma tumors. Format: in vivo. The settings on record: for Ward carcinoma tumor response: once per week for three weeks. On the procedure:
Rats were implanted with Ward carcinoma tumors and were treated with one of the following regimens after their tumors grew to 3,000 mg in weight as previously described (Cao et al., Cancer Res 90:1507-1510, 1993). Rats bearing 3,000 mg of tumor mass were dosed at Day 0, Day 7, and Day 14 with the following treatments.
Group A rats received no treatment. Group B rats were intraperitoneally (ip) dosed with 1 mg/kg eniluracil (time (t)=0) followed by intravenous (iv) 5 mg/kg 5-FU at t=60. Group C rats were dosed ip with 1 mg/kg eniluracil (t=0) followed by 25 mg/kg eniluracil ip at t=55 minutes and by 5 mg/kg 5-FU iv at t=60 minutes. Animals were dosed once per week for three weeks. Eniluracil was also dosed ip at 1 mg/kg to rats in Groups B & C on Days 2 and 3 of each weekly treatment. The treatment for Group C mimicked the clinical trials where high levels of eniluracil were present when 5-FU was dosed.

A short description of data set [4]: Plasma uridine levels after eniluracil, LC-MS. Format: in vivo. The settings on record: mice, eniluracil 2, 25 and 100 mg/kg, FIG. 2. On the procedure:
While eniluracil inhibition is known to cause an increase in uracil levels due to DPD inhibition, inhibitory effects on other enzymes that anabolize fluoropyrimidines would be expected to quantitatively alter the levels of other anabolites, such as uridine. Eniluracil was administered to mice at 2 mg/kg, 25 mg/kg and 100 mg/kg. Plasma samples were taken at 0 minutes, 15 minutes, 30 minutes, 60 minutes, 2 hours, 24 hours and 48 hours. Uridine levels were determined by LC-MS technology using known techniques and standards were used to validate the assay.

The conditions of data set [5]: cited from earlier work. The source holds these as a separate data set.
For data set [6], the system named is HEK 293 cells. The data set can be described thus: Cytotoxicity of 5-FU, MTS proliferation assay. The settings on record: Homo sapiens. Format: cell-based. On the procedure:
as §1
Background: Tetrazolium dyes change colour on reduction, which living cells bring about.

Turning to `C#Cc1c[nH]c(=O)[nH]c1=O` [eniluracil, 5-Ethynyluracil], in data set [1] (1000, 500 and 100 μM, topical exposures of up to 24 hours), the “Tolerability in the EpiDerm skin model” value is given as “well-tolerated”. Also, the ET50 in data set [1] (eniluracil 100 uM), in data set [1] (eniluracil 500 uM) and in data set [1] (eniluracil 1000 uM) was more than 24 h each time. In addition, the “Increase in [6-14C]-FUMP formation versus [6-14C]-5-FU treatment alone” value with HEK 293 cells [2] was found to be 70%. In addition, in the data set with HEK 293 cells [2], the “Increase in [6-14C]-FUMP formation versus eniluracil and [6-14C]-5-FU co-administration” value came to 41%. In addition, on DPD (24 hours after one dose of eniluracil), the “Level of DPD, % of the predose level” value is on record as 3%. Besides, the DPD eliminated entry on DPD (dose of 0.74 mg/m^2 (about 1 mg total), for prolonged periods) was “greater than 90%”. Besides, the “5-FU-associated hand-foot syndrome toxicity” value in data set [3] (Phase II and Phase III trials, oral eniluracil with 5-FU) is on record as “abrogated”. The “Toxicity in Phase I clinical trials” value in data set [3] (cancer patients, eniluracil eliminating DPD activity) is “without causing toxicity”. Also, in data set [3] (two Phase III studies, 28-day eniluracil and 5-FU regimen, colorectal cancer), the “Antitumor activity versus standard 5-FU regimen without eniluracil” value is recorded as “less antitumor activity”. In the data set on Ward carcinoma tumors (Group C (extra 25 mg/kg eniluracil at 55 min) versus Group B), the “Effect of excess eniluracil on antitumor activity of 5-FU” value is “greatly diminished”. For the same molecule, the Plasma uridine levels entry in data set [4] is listed as “increase in uridine levels”. Also, in data set [5] (humans), the “Elimination half-life for eniluracil” value is given as “about 3.5 hours”.

The EC50 is the concentration that produces a half-maximal response. In the case of `O=c1[nH]cc(F)c(=O)[nH]1` [5-FU, 5-Fluorouracil], the EC50 is 311 nM in the data set on HEK 293 cells [6] (HEK293, 72 h, read-out: EC50 of 5-FU (mean ±SE), 72 hours, 5-FU treatment alone); 264 nM in the data set with HEK 293 cells [6] (HEK293, read-out: EC50 of 5-FU (mean ±SE), 72 hours, after 1 hour eniluracil (5 μM) pre-treatment); 308 nM with HEK 293 cells [6] (HEK293, read-out: EC50 of 5-FU (mean ±SE), 72 hours, eniluracil (5 μM) co-administered without preincubation). The “Ward carcinoma tumor response” value is given as “rapidly eliminated” with Ward carcinoma tumors (Group B: eniluracil 1 mg/kg ip t=0, 5-FU 5 mg/kg iv t=60 min) and “decreased only slightly in size” in the data set on Ward carcinoma tumors (Group C: eniluracil 1 mg/kg ip t=0, eniluracil 25 mg/kg ip t=55 min, 5-FU 5 mg/kg iv t=60 min). Moreover, the “Half-life of 5-FU” value in data set [5] (cancer patients, after 3.7 mg/m^2 eniluracil) is 4.5 h. Besides, the “Elimination half-life of 5-FU” value in data set [5] (cancer patients, after one dose of eniluracil) was 3.5 h; in data set [5] (cancer patients, without eniluracil), “about 10 minutes”.
